Series [1] deals with Mus musculus. Nature of the series: Toxicity in lithogenic diet-fed Mus musculus C57BL/6 (mouse) assessed as change in body weight at 10 mg/kg/day, po after 8 weeks. In kind it is organism-based. More on the design: route oral. Particulars: in vivo, 1344 h.
In series [2] the test system is Mus musculus. In words: Hepatoprotective activity in lithogenic diet-fed Mus musculus C57BL/6 (mouse) assessed as decrease in serum total cholesterol level at 10 mg/kg/day, po after 8 weeks relative to untreated control. In kind it is functional, organism-based.
The subject of series [3] is Mus musculus. In words: Hepatoprotective activity in lithogenic diet-fed Mus musculus C57BL/6 (mouse) assessed as decrease in serum triglyceride level at 10 mg/kg/day, po followed by lithogenic diet feeding for 8 weeks (reference value: 1.01+/- 0.15 mmol/l). In kind it is functional.
The subject of series [4] is Mus musculus. In words: Hepatoprotective activity in lithogenic diet-fed Mus musculus C57BL/6 (mouse) assessed as decrease in serum ALT level at 10 mg/kg/day, po followed by lithogenic diet feeding for 8 weeks (reference value: 42.6 +/- 7.63 IU/L). In kind it is functional.
Series [5] relates to Mus musculus. Nature of the series: Reduction of lithogenic diet-induced fatty liver formation in Mus musculus C57BL/6 (mouse) at 10 mg/kg/day, po followed by lithogenic diet feeding for 8 weeks by hematoxylin-eosin staining relative to untreated control. The class given is functional, organism-based.
Series [6] concerns Mus musculus. Nature of the series: Hepatoprotective activity in lithogenic diet-fed Mus musculus C57BL/6 (mouse) assessed as decrease in serum ALT level at 10 mg/kg/day, po after 8 weeks relative to untreated control. In kind it is functional, organism-based.
The subject of series [7] is Mus musculus. Nature of the series: Toxicity in lithogenic diet-fed Mus musculus C57BL/6 (mouse) assessed as change in body weight at 10 mg/kg/day, po followed by lithogenic diet feeding for 8 weeks (reference value: 30.82 +/- 2.88 g). In kind it is organism-based. More on the design: route oral. The conditions noted are these: in vivo, 1344 h.
For series [8], the system named is Mus musculus. Nature of the series: Hepatoprotective activity in lithogenic diet-fed Mus musculus C57BL/6 (mouse) assessed as decrease in serum triglyceride level at 10 mg/kg/day, po after 8 weeks relative to untreated control. The class given is functional, organism-based.
The test system of series [9] is Mus musculus. Nature of the series: Protection against lithogenic diet-induced gallstone formation in Mus musculus C57BL/6 (mouse) at 10 mg/kg/day, po after 8 weeks by infrared photoacoustic spectroscopic analysis relative to untreated control. In kind it is functional, organism-based.
The subject of series [10] is Mus musculus. Nature of the series: Reduction of lithogenic diet-induced gallstone formation in Mus musculus C57BL/6 (mouse) at 10 mg/kg/day, po followed by lithogenic diet feeding for 8 weeks by infrared photoacoustic spectroscopic analysis (reference value: 1.53 +/- 0.63 g). The class given is functional.
The test system of series [11] is Mus musculus. In words: Hepatoprotective activity in lithogenic diet-fed Mus musculus C57BL/6 (mouse) assessed as decrease in serum total cholesterol level at 10 mg/kg/day, po followed by lithogenic diet feeding for 8 weeks (reference value: 2.24 +/- 0.27 mmol/l). In kind it is functional.
In series [12] the test system is Mus musculus. In words: Hepatoprotective activity in lithogenic diet-fed Mus musculus C57BL/6 (mouse) assessed as decrease in serum triglyceride level at 0.5 mg/kg/day, po followed by lithogenic diet feeding for 8 weeks (reference value: 1.01+/- 0.15 mmol/l). The class given is functional.
The test system of series [13] is Mus musculus. Nature of the series: Hepatoprotective activity in lithogenic diet-fed Mus musculus C57BL/6 (mouse) assessed as decrease in serum total cholesterol level at 3 mg/kg/day, po followed by lithogenic diet feeding for 8 weeks (reference value: 2.24 +/- 0.27 mmol/l). In kind it is functional.
Series [14] has as its system Mus musculus. In words: Reduction of lithogenic diet-induced gallstone formation in Mus musculus C57BL/6 (mouse) at 0.5 mg/kg/day, po followed by lithogenic diet feeding for 8 weeks by infrared photoacoustic spectroscopic analysis (reference value: 1.53 +/- 0.63 g). In kind it is functional.
For series [15], the system named is Mus musculus. Nature of the series: Hepatoprotective activity in lithogenic diet-fed Mus musculus C57BL/6 (mouse) assessed as decrease in serum ALT level at 3 mg/kg/day, po followed by lithogenic diet feeding for 8 weeks (reference value: 42.6 +/- 7.63 IU/L). The class given is functional.
Series [16] deals with Mus musculus. In words: Reduction of lithogenic diet-induced fatty liver formation in Mus musculus C57BL/6 (mouse) at 0.5 to 3 mg/kg/day, po after 8 weeks by hematoxylin-eosin staining relative to untreated control. The class given is functional, organism-based.
Series [17] concerns Mus musculus. In words: Hepatoprotective activity in lithogenic diet-fed Mus musculus C57BL/6 (mouse) assessed as decrease in serum ALT level at 0.5 to 3 mg/kg/day, po after 8 weeks relative to untreated control. In kind it is functional, organism-based.
In series [18] the test system is Mus musculus. In words: Hepatoprotective activity in lithogenic diet-fed Mus musculus C57BL/6 (mouse) assessed as decrease in serum triglyceride level at 3 mg/kg/day, po followed by lithogenic diet feeding for 8 weeks (reference value: 1.01+/- 0.15 mmol/l). In kind it is functional.
Series [19] concerns Mus musculus. In words: Hepatoprotective activity in lithogenic diet-fed Mus musculus C57BL/6 (mouse) assessed as decrease in serum total cholesterol level at 0.5 to 3 mg/kg/day, po after 8 weeks relative to untreated control. In kind it is functional, organism-based.
The test system of series [20] is Mus musculus. In words: Protection against lithogenic diet-induced gallstone formation in Mus musculus C57BL/6 (mouse) at 0.5 mg/kg/day, po after 8 weeks by infrared photoacoustic spectroscopic analysis relative to untreated control. The class given is functional, organism-based.
In series [21] the test system is Mus musculus. In words: Toxicity in lithogenic diet-fed Mus musculus C57BL/6 (mouse) assessed as change in body weight at 0.5 to 3 mg/kg/day, po after 8 weeks. The class given is organism-based. More on the design: route oral. Particulars: in vivo, 1344 h.
Series [22] has as its system Mus musculus. Nature of the series: Hepatoprotective activity in lithogenic diet-fed Mus musculus C57BL/6 (mouse) assessed as decrease in serum triglyceride level at 0.5 to 3 mg/kg/day, po after 8 weeks relative to untreated control. The class given is functional, organism-based.
The test system of series [23] is Mus musculus. In words: Hepatoprotective activity in lithogenic diet-fed Mus musculus C57BL/6 (mouse) assessed as decrease in serum total cholesterol level at 0.5 mg/kg/day, po followed by lithogenic diet feeding for 8 weeks (reference value: 2.24 +/- 0.27 mmol/l). In kind it is functional.
Series [24] has as its system Mus musculus. Nature of the series: Reduction of lithogenic diet-induced fatty liver formation in Mus musculus C57BL/6 (mouse) at 0.5 to 3 mg/kg/day, po followed by lithogenic diet feeding for 8 weeks by hematoxylin-eosin staining relative to untreated control. The class given is functional, organism-based.
Series [25] deals with Mus musculus. In words: Toxicity in lithogenic diet-fed Mus musculus C57BL/6 (mouse) assessed as change in body weight at 0.5 mg/kg/day, po followed by lithogenic diet feeding for 8 weeks (reference value: 30.82 +/- 2.88 g). The class given is organism-based. More on the design: route oral. Particulars: in vivo, 1344 h.
For series [26], the system named is Mus musculus. Nature of the series: Hepatoprotective activity in lithogenic diet-fed Mus musculus C57BL/6 (mouse) assessed as decrease in serum ALT level at 0.5 mg/kg/day, po followed by lithogenic diet feeding for 8 weeks (reference value: 42.6 +/- 7.63 IU/L). In kind it is functional.
Series [27] has as its system Mus musculus. Nature of the series: Protection against lithogenic diet-induced gallstone formation in Mus musculus C57BL/6 (mouse) at 3 mg/kg/day, po after 8 weeks by infrared photoacoustic spectroscopic analysis relative to untreated control. In kind it is functional, organism-based.
For series [28], the system named is Mus musculus. In words: Toxicity in lithogenic diet-fed Mus musculus C57BL/6 (mouse) assessed as change in body weight at 3 mg/kg/day, po followed by lithogenic diet feeding for 8 weeks (reference value: 30.82 +/- 2.88 g). In kind it is organism-based. More on the design: route oral. Particulars: in vivo, 1344 h.
The test system of series [29] is Mus musculus. Nature of the series: Reduction of lithogenic diet-induced gallstone formation in Mus musculus C57BL/6 (mouse) at 3 mg/kg/day, po followed by lithogenic diet feeding for 8 weeks by infrared photoacoustic spectroscopic analysis (reference value: 1.53 +/- 0.63 g). In kind it is functional.

In ChEMBL document CHEMBL3046275, “EBHU18, a novel derivative of fatty acid bile acid conjugates, prevents cholesterol gallstone formation in experimental mice” (Med Chem Res, 2012) one finds Activity data, which are given here for two molecules.

Active and inactive are the calls of the source. The rule behind the calls is not given here.

Regarding `C[C@H](CCC(=O)O)[C@H]1CC[C@H]2[C@@H]3[C@@H](O)C[C@@H]4C[C@H](O)CC[C@]4(C)[C@H]3CC[C@]12C` [URSODIOL], the Activity entry is recorded as “Non-toxic” in [1]; 0.75 mmol/L in series [3]; 38 IU/L in [4]; 31.76 g in [7]; 1.41 g in series [10]; 2.16 mmol/L in series [11]. The result in series [2], in series [6] and in series [8] was Active. In addition, the outcome in series [5] and in series [9] was inactive.

For `CCCCCCCCCCCCCCCCCCCC(=O)NCCCCC(NC(=O)CC[C@@H](C)[C@H]1CC[C@H]2[C@@H]3C(O)C[C@@H]4C[C@H](O)CC[C@]4(C)[C@H]3C[C@H](O)[C@]12C)C(=O)O` (some centres undefined), the Activity was 0.76 mmol/L in series [12]; 2.04 mmol/L in series [13]; 1.02 g in series [14]; 36.5 IU/L in [15]; 0.74 mmol/L in series [18]; “Non-toxic” in [21]. In addition, the Activity in [23] is recorded as 2.09 mmol/L; in series [25], 31.89 g; in [26], 34.8 IU/L; in series [28] it was 31.74 g; in series [29], 0.96 g. The outcome in [16], in [17], in series [19], in series [22], in [24] and in series [27] was Active. Further, in [20], the result was inactive.
